# Assay results taken from US20240417428A1, “POLYPEPTIDE FOR INHIBITING TRPM8 AND USE THEREOF” (ZHEJIANG UNIVERSITY, priority 2021, published 2024).
# Where a SMILES comes first, the peptide text is derived from it.
# Columns and labels:
# [1] = test system: CCI-induced static allodynia; experiment: Chronic constriction injury (CCI) model of neuropathic pain: static allodynia; assay type: in vivo; details: CCI rats
# Description: Male Sprague Dawley rats (purchased from Shanghai SLAC Laboratory Animals, LLC, 7 weeks old at the beginning of the experiment, n=7-10 per treatment) were used. CCI status was formed according to the method of Bennett G J and Xie Y K (Pain 1988, 33:87-107). Rats were anesthetized by intraperitoneal injection of sodium pentobarbital. The left common sciatic nerve was made to be exposed in the middle of the thigh in a state deprived of adherent tissue, and 4-0 silk thread (Ethicon Inc.) was utilized around it and four passes were loosely ligated at intervals of approximately 1 mm. Sham surgery was performed in the same manner except for sciatic nerve ligation. CCI surgery was performed after 2-3 weeks as described in Field M J et al. (Pain 1999, 83:303-311) documented, static allodynia was evaluated by Von Frey Hairs (VFH). Before starting the experiment, the experimental animals were acclimatized to the grid bottom cage. […] Each VFH was pressed against the phasic paw for 6 seconds, or until a withdrawal response occurred. When one withdrawal response occurred, the experiment was repeated by pressing the VFH at a weaker pressure until no withdrawal response occurred. The minimum pressure required to induce a response was recorded as a withdrawal paw threshold (PWT). If the experimental animal responded below an innocuous 1.4 g VFH, it was determined to be in static allodynia. […]
# TRPV2 = target: T1, TRPV2 (Homo sapiens, UniProt Q9Y5S1); experiment: Electrophysiological recording, ligand activation of TRPV2; assay type: cell-based; details: IC 50 TRPV2
# T1 construct: expressed in transfected cells; host or cells: HEK293T
# T1 sequence (Q9Y5S1 1-764): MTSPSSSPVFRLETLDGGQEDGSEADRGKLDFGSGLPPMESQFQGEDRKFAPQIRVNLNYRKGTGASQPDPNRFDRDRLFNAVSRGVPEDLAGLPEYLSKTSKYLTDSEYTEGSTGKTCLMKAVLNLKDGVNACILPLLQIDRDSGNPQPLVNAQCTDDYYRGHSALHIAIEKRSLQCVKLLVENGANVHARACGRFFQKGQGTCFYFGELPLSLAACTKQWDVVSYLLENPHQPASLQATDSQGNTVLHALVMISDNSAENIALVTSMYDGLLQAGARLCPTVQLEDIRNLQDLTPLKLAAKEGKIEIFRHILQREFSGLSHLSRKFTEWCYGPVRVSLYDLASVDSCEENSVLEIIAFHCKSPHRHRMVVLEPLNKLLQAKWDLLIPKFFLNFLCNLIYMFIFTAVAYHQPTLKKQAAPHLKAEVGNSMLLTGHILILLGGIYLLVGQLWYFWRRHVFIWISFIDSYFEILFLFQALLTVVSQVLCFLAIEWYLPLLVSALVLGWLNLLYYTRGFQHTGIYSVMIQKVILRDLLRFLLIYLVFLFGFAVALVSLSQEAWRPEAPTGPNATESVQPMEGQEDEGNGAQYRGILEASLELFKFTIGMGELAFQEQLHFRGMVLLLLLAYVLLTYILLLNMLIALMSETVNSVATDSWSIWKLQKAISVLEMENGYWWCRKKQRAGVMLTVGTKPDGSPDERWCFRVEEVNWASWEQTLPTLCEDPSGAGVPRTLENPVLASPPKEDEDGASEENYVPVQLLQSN
# Protocol: HEK293T cells were cultured in Dulbecco's modified Eagle culture medium under a 37° C., 5% CO2 environment, 10% fetal bovine serum, penicillin (100 U/mL), and streptomycin ([…]) was needed to add into the culture medium. Transient transfection was conducted by using Lipo 2000 (Invitrogen) transfection kit and following the instruction manual.
# Electrophysiological experiment recordings were performed on the cells within 24˜48 h of transient transfections. Specifically, single channel electrophysiological recordings were performed within 8 h after transfection.
# Measurement of the cell currents was respectively performed in the whole-cell recording mode, inside-out recording mode or outside-out recording mode with a HEKA EPC10 amplifier. In the whole cell electrophysiological recordings, glass microelectrodes made of borosilicate material were fire-polished to a original electrode resistance of about 3-6 MΩ. Serial resistance was compensated by 60%. The whole cell electrophysiological recordings were performed at ±80 mV. For single channel electrophysiological recordings, glass microelectrodes were fire-polished to a higher resistance of 6-8 MΩ2. Current signal was sampled at 10 kHz and filtered at 2.9 kHz. Membrane potential of the cell membrane would be clamped at +80 mV. All electrophysiological recordings were performed at room temperature (22° C.) (the maximum variation is 1° C.). […]
smiles,measurement,setting,value
"C[C@@H]1NC(=O)[C@H](CCCNC(=N)N)NC(=O)[C@H](CC(=O)O)NC(=O)[C@H](CCCNC(=N)N)NC(=O)[C@H](CCCNC(=N)N)NC(=O)[C@@H](N)CSSC[C@@H](C(=O)O)NC(=O)[C@H](CCCNC(=N)N)NC(=O)[C@H](CCC(N)=O)NC(=O)[C@H](CCCNC(=N)N)NC(=O)[C@H](Cc2ccc(O)cc2)NC(=O)[C@H](Cc2c[nH]cn2)NC(=O)[C@H](CCCNC(=N)N)NC1=O [DeC-1.2, CRRDRARHYRQRC] (HELM PEPTIDE1{C.R.R.D.R.A.R.H.Y.R.Q.R.C}$PEPTIDE1,PEPTIDE1,1:R3-13:R3$$$V2.0; N-terminus and C-terminus assumed)",activity against static allodynia (von Frey hairs),[1],exhibited strong activity
same,IC50,TRPV2,> 5 µM
